Reference: US10842838B2, “Method for the use of botanical extracts in the treatment of viral infections” (priority 2012, dated 2020)

Test system: VACV
Format: cell-based, vaccinia virus
Conditions: 100 pfu VACV, 48 HPI

For `C=C(C)[C@@H]1CC[C@]2(C)CC[C@]3(C)[C@H](CC[C@@H]4[C@@]5(C)CC[C@H](O)C(C)(C)[C@@H]5CC[C@]43C)[C@@H]12` [lupeol], the “antiviral activity, VACV plaques” value was “did not show suitable antiviral activity”.
